Three compounds from patent US12704459B2, “Methods, compositions, and kits for assay signal amplification” (MESO SCALE TECHNOLOGIES, LLC., priority 2021, dated 2026) can be followed below.

Data set [1] concerns anti-SULFO-TAG antibody clones. Kind of data set: Competition assay: ligands SM, Bpy or A against TAG compound binding. More on the design: species or system mouse. Conditions: 2 μM of ligand. On the procedure: FIGS. 20A-20I show the results of exemplary competitive binding assays between the TAG compounds shown in FIG. 18A and the SM, Bpy, or A ligands shown in FIG. 18A, with the anti-SULFO-TAG antibody clones described in Example 4. The graphs show the remaining ECL signal after anti-SULFO-TAG antibodies were exposed to 2 μM of each ligand, then varying concentrations of each of the TAG compounds. Lower ECL signal is indicative of stronger binding affinity to a particular ligand. The three panels in the right-most column show ECL signals from exposing the anti-SULFO-TAG antibody clones to 10 nM of the TAG compounds alone (without ligands).
To further verify the role of ligands in antibody recognition, the antibodies were coated on MSD® 96-well Small Spot Streptavidin plates and first exposed to 2 μM of ligands SM, Bpy, or A, then exposed to different concentrations of the TAG compounds as a competition assay.

The nature of data set [2]: ECL generation of free TAG compounds spiked into ECL read buffer. The class given is physicochemical. Conditions: free TAG compound in ECL read buffer, 96-well bare carbon plates. On the procedure:
An epitope recognition study was performed on the eleven anti-SULFO-TAG antibody clones described in Example 4. To study the epitope recognition of these antibody clones, four organometallic Ru^2+ compounds (“TAG compounds”) with varying numbers of sulfomethyl-bipyridine (“SM”) or bipyridine (“Bpy”) ligands as shown in FIG. 18A were prepared. The SULFO-TAG is denoted as Ru^+2(SM)2A1, which includes an acid ligand (“A”) in one of the Bpy groups and is more similar in structure with Bpy than SM. ECL generation from each TAG compound was verified by spiking the TAG compounds into ECL read buffer, and the ECL signal from each free TAG compound was measured on 96-well bare carbon plates. […] The Ru(Bpy)3 ECL signal, when normalized for concentration, would be 248,576 ECL units, similar to the other TAG compounds.

For the compound sulfomethyl-bipyridine [SM], the “ligand binding / competition with antibody binding to Ru^+2(SM)3 and SULFO-TAG” value in data set [1] is reported as “strongest binding”. As for `c1ccc(-c2ccccn2)nc1` [Bpy, bipyridine], in data set [1], the “ligand binding / competition with antibody binding to Ru^+2(SM)3 and SULFO-TAG” value is “unable to significantly outcompete antibody binding”. On to `[Ru+2].c1ccc(-c2ccccn2)nc1.c1ccc(-c2ccccn2)nc1.c1ccc(-c2ccccn2)nc1` [Ru(Bpy)3], for which, in data set [2], the “ECL signal, normalized for concentration” value is 248,576 ECL units.
